From patent publication US9738634B2, “Heterocyclic amide compound and herbicide” (SYNGENTA PARTICIPATIONS AG, priority 2013, dated 2017)

Columns and labels:
Assay type in all cases: in vivo
Conditions in all cases: treatment dosage 320 g/ha
directly sown rice [1] = assay: Test Example 3: soil treatment, effect on crop; b: directly sown rice
How it was run: (§1)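 Crop and weed responses were judged three weeks after a uniform surface spray of the water-diluted emulsion at the given g/ha rate. Seeds sat beneath about 1.5 cm of sterilized diluvial soil, and boxes stood in a greenhouse at 25 to 30° C.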

oval-leafed pondweed [2] = assay: Test Example 1: weedkilling efficacy, preemergent weed treatment in the submerged state; C: oval-leafed pondweed
How it was run: (§2)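 Pots of alluvial soil were flooded to a 4 cm depth. Mixed weed seeds were sown and 2.5 leaf-stage rice seedlings transplanted. On sowing day, water-diluted emulsion was applied to the water surface (dose in g/ha). After 3 weeks at 25–30 °C, effects were rated.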

wheat [3] = assay: Test Example 3: soil treatment, effect on crop; e: wheat
How it was run: as §1

barnyard grass [4] = assay: Test Example 3: weedkilling efficacy through soil treatment; F: barnyard grass
How it was run: as §1

transplanted rice = assay: Test Example 1: preemergent weed treatment in the submerged state, effect on crop; a: transplanted rice
How it was run: as §2

directly sown rice [5] = assay: Test Example 4: foliar treatment, effect on crop; b: directly sown rice
How it was run: (§3)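 Seeds are spot-sown into sterilized diluvial soil and covered with about 1.5 cm of soil. After 14 days' greenhouse growth at 25 to 30° C, plants are sprayed on stems and leaves with diluted emulsion at the stated g/ha rate, then scored at 3 weeks.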

Indian mallow [6] = assay: Test Example 4: weedkilling efficacy by foliar treatment; K: Indian mallow
How it was run: as §3

common wind-grass [7] = assay: Test Example 4: weedkilling efficacy by foliar treatment; J: common wind-grass
How it was run: as §3

chickweed [8] = assay: Test Example 3: weedkilling efficacy through soil treatment; N: chickweed
How it was run: as §1

crabgrass [9] = assay: Test Example 3: weedkilling efficacy through soil treatment; D: crabgrass
How it was run: as §1

birds-eye speedwell = assay: Test Example 4: weedkilling efficacy by foliar treatment; p: birds-eye speedwell
How it was run: as §3

beet [10] = assay: Test Example 4: foliar treatment, effect on crop; f: beet
How it was run: as §3

chickweed [11] = assay: Test Example 4: weedkilling efficacy by foliar treatment; N: chickweed
How it was run: as §3

black-grass [12] = assay: Test Example 3: weedkilling efficacy through soil treatment; H: black-grass
How it was run: as §1

corn [13] = assay: Test Example 3: soil treatment, effect on crop; c: corn
How it was run: as §1

wild oat [14] = assay: Test Example 3: weedkilling efficacy through soil treatment; G: wild oat
How it was run: as §1

catchweed [15] = assay: Test Example 4: weedkilling efficacy by foliar treatment; O: catchweed
How it was run: as §3

rapeseed [16] = assay: Test Example 3: soil treatment, effect on crop; g: rapeseed
How it was run: as §1

oval-leafed pondweed [17] = assay: Test Example 2: weedkilling efficacy, growth period weed treatment in the submerged state; C: oval-leafed pondweed
How it was run: (§4)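 Weeds treated at the 1-2 leaf stage by application of diluted emulsion onto floodwater (4 cm depth, alluvial soil) at specified g/ha. Grown in greenhouse at 25 to 30° C; herbicidal effect rated three weeks after treatment.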

crabgrass [18] = assay: Test Example 4: weedkilling efficacy by foliar treatment; D: crabgrass
How it was run: as §3

redroot pigweed [19] = assay: Test Example 4: weedkilling efficacy by foliar treatment; L: redroot pigweed
How it was run: as §3

Indian mallow [20] = assay: Test Example 3: weedkilling efficacy through soil treatment; K: Indian mallow
How it was run: as §1

Italian ryegrass [21] = assay: Test Example 4: weedkilling efficacy by foliar treatment; I: Italian ryegrass
How it was run: as §3

wheat [22] = assay: Test Example 4: foliar treatment, effect on crop; e: wheat
How it was run: as §3

rapeseed [23] = assay: Test Example 4: foliar treatment, effect on crop; g: rapeseed
How it was run: as §3

beet [24] = assay: Test Example 3: soil treatment, effect on crop; f: beet
How it was run: as §1

green foxtail [25] = assay: Test Example 3: weedkilling efficacy through soil treatment; E: green foxtail
How it was run: as §1

corn [26] = assay: Test Example 4: foliar treatment, effect on crop; c: corn
How it was run: as §3

soybean [27] = assay: Test Example 4: foliar treatment, effect on crop; d: soybean
How it was run: as §3

redroot pigweed [28] = assay: Test Example 3: weedkilling efficacy through soil treatment; L: redroot pigweed
How it was run: as §1

catchweed [29] = assay: Test Example 3: weedkilling efficacy through soil treatment; O: catchweed
How it was run: as §1

Italian ryegrass [30] = assay: Test Example 3: weedkilling efficacy through soil treatment; I: Italian ryegrass
How it was run: as §1

barnyard grass [31] = assay: Test Example 2: weedkilling efficacy, growth period weed treatment in the submerged state; A: barnyard grass
How it was run: as §4

fig-leafed goosefoot [32] = assay: Test Example 3: weedkilling efficacy through soil treatment; M: fig-leafed goosefoot
How it was run: as §1

black-grass [33] = assay: Test Example 4: weedkilling efficacy by foliar treatment; H: black-grass
How it was run: as §3

bulrush [34] = assay: Test Example 2: weedkilling efficacy, growth period weed treatment in the submerged state; B: bulrush
How it was run: as §4

bulrush [35] = assay: Test Example 1: weedkilling efficacy, preemergent weed treatment in the submerged state; B: bulrush
How it was run: as §2

barnyard grass [36] = assay: Test Example 1: weedkilling efficacy, preemergent weed treatment in the submerged state; A: barnyard grass
How it was run: as §2

common wind-grass [37] = assay: Test Example 3: weedkilling efficacy through soil treatment; J: common wind-grass
How it was run: as §1

soybean [38] = assay: Test Example 3: soil treatment, effect on crop; d: soybean
How it was run: as §1

wild oat [39] = assay: Test Example 4: weedkilling efficacy by foliar treatment; G: wild oat
How it was run: as §3

green foxtail [40] = assay: Test Example 4: weedkilling efficacy by foliar treatment; E: green foxtail
How it was run: as §3

fig-leafed goosefoot [41] = assay: Test Example 4: weedkilling efficacy by foliar treatment; M: fig-leafed goosefoot
How it was run: as §3

barnyard grass [42] = assay: Test Example 4: weedkilling efficacy by foliar treatment; F: barnyard grass
How it was run: as §3

Q: For CC1=C(c2ccccc2)C(=O)N(C(C)(C)C(=O)Nc2cc(C(F)(F)F)cc(C)n2)CO1 [B-2-51], which “b (directly sown rice) effect on crop grade” value (directly sown rice [1]) is on record?
A: 3 (weed kill ratio 40% or more, less than 70%)

Q: What about the “C (oval-leafed pondweed) weedkilling efficacy grade” value (oval-leafed pondweed [2]) of the same compound?
A: 5 (weed kill ratio 90% or more, (practically complete withering))

Q: And the “e (wheat) effect on crop grade” value (wheat [3])?
A: 0 (weed kill ratio 5% or less (practically no effect))

Q: And the “F (barnyard grass) weedkilling efficacy grade” value (barnyard grass [4])?
A: 5 (weed kill ratio 90% or more, (practically complete withering))

Q: What about the “a (transplanted rice) effect on crop grade” value (transplanted rice) of the same compound?
A: 0 (weed kill ratio 5% or less (practically no effect))

Q: What about the “b (directly sown rice) effect on crop grade” value (directly sown rice [5]) of the same compound?
A: 4 (weed kill ratio 70% or more, less than 90%)

Q: And the “K (Indian mallow) weedkilling efficacy grade” value (Indian mallow [6])?
A: 4 (weed kill ratio 70% or more, less than 90%)

Q: What about the “J (common wind-grass) weedkilling efficacy grade” value (common wind-grass [7]) of the same compound?
A: 5 (weed kill ratio 90% or more, (practically complete withering))

Q: What about the “N (chickweed) weedkilling efficacy grade” value (chickweed [8]) of the same compound?
A: 4 (weed kill ratio 70% or more, less than 90%)

Q: And the “D (crabgrass) weedkilling efficacy grade” value (crabgrass [9])?
A: 5 (weed kill ratio 90% or more, (practically complete withering))

Q: What about the “P (birds-eye speedwell) weedkilling efficacy grade” value (birds-eye speedwell) of the same compound?
A: 4 (weed kill ratio 70% or more, less than 90%)

Q: And the “f (beet) effect on crop grade” value (beet [10])?
A: 4 (weed kill ratio 70% or more, less than 90%)

Q: What about the “N (chickweed) weedkilling efficacy grade” value (chickweed [11]) of the same compound?
A: 4 (weed kill ratio 70% or more, less than 90%)

Q: And the “H (black-grass) weedkilling efficacy grade” value (black-grass [12])?
A: 5 (weed kill ratio 90% or more, (practically complete withering))

Q: What about the “c (corn) effect on crop grade” value (corn [13]) of the same compound?
A: 1 (weed kill ratio 5% or more, less than 20%)

Q: What about the “G (wild oat) weedkilling efficacy grade” value (wild oat [14]) of the same compound?
A: 5 (weed kill ratio 90% or more, (practically complete withering))

Q: What about the “O (catchweed) weedkilling efficacy grade” value (catchweed [15]) of the same compound?
A: 4 (weed kill ratio 70% or more, less than 90%)

Q: What about the “g (rapeseed) effect on crop grade” value (rapeseed [16]) of the same compound?
A: 2 (weed kill ratio 20% or more, less than 40%)

Q: And the “C (oval-leafed pondweed) weedkilling efficacy grade” value (oval-leafed pondweed [17])?
A: 5 (weed kill ratio 90% or more, (practically complete withering))

Q: What about the “D (crabgrass) weedkilling efficacy grade” value (crabgrass [18]) of the same compound?
A: 5 (weed kill ratio 90% or more, (practically complete withering))

Q: And the “L (redroot pigweed) weedkilling efficacy grade” value (redroot pigweed [19])?
A: 4 (weed kill ratio 70% or more, less than 90%)

Q: And the “K (Indian mallow) weedkilling efficacy grade” value (Indian mallow [20])?
A: 2 (weed kill ratio 20% or more, less than 40%)

Q: And the “I (Italian ryegrass) weedkilling efficacy grade” value (Italian ryegrass [21])?
A: 5 (weed kill ratio 90% or more, (practically complete withering))

Q: What about the “e (wheat) effect on crop grade” value (wheat [22]) of the same compound?
A: 1 (weed kill ratio 5% or more, less than 20%)

Q: What about the “g (rapeseed) effect on crop grade” value (rapeseed [23]) of the same compound?
A: 3 (weed kill ratio 40% or more, less than 70%)

Q: And the “f (beet) effect on crop grade” value (beet [24])?
A: 4 (weed kill ratio 70% or more, less than 90%)

Q: What about the “E (green foxtail) weedkilling efficacy grade” value (green foxtail [25]) of the same compound?
A: 5 (weed kill ratio 90% or more, (practically complete withering))

Q: And the “c (corn) effect on crop grade” value (corn [26])?
A: 0 (weed kill ratio 5% or less (practically no effect))

Q: What about the “d (soybean) effect on crop grade” value (soybean [27]) of the same compound?
A: 3 (weed kill ratio 40% or more, less than 70%)

Q: What about the “L (redroot pigweed) weedkilling efficacy grade” value (redroot pigweed [28]) of the same compound?
A: 4 (weed kill ratio 70% or more, less than 90%)

Q: What about the “O (catchweed) weedkilling efficacy grade” value (catchweed [29]) of the same compound?
A: 3 (weed kill ratio 40% or more, less than 70%)

Q: And the “I (Italian ryegrass) weedkilling efficacy grade” value (Italian ryegrass [30])?
A: 5 (weed kill ratio 90% or more, (practically complete withering))

Q: And the “A (barnyard grass) weedkilling efficacy grade” value (barnyard grass [31])?
A: 5 (weed kill ratio 90% or more, (practically complete withering))

Q: What about the “M (fig-leafed goosefoot) weedkilling efficacy grade” value (fig-leafed goosefoot [32]) of the same compound?
A: 4 (weed kill ratio 70% or more, less than 90%)

Q: And the “H (black-grass) weedkilling efficacy grade” value (black-grass [33])?
A: 5 (weed kill ratio 90% or more, (practically complete withering))

Q: What about the “B (bulrush) weedkilling efficacy grade” value (bulrush [34]) of the same compound?
A: 5 (weed kill ratio 90% or more, (practically complete withering))

Q: What about the “B (bulrush) weedkilling efficacy grade” value (bulrush [35]) of the same compound?
A: 5 (weed kill ratio 90% or more, (practically complete withering))

Q: And the “A (barnyard grass) weedkilling efficacy grade” value (barnyard grass [36])?
A: 5 (weed kill ratio 90% or more, (practically complete withering))

Q: What about the “J (common wind-grass) weedkilling efficacy grade” value (common wind-grass [37]) of the same compound?
A: 5 (weed kill ratio 90% or more, (practically complete withering))

Q: And the “d (soybean) effect on crop grade” value (soybean [38])?
A: 0 (weed kill ratio 5% or less (practically no effect))

Q: What about the “G (wild oat) weedkilling efficacy grade” value (wild oat [39]) of the same compound?
A: 5 (weed kill ratio 90% or more, (practically complete withering))

Q: What about the “E (green foxtail) weedkilling efficacy grade” value (green foxtail [40]) of the same compound?
A: 5 (weed kill ratio 90% or more, (practically complete withering))

Q: What about the “M (fig-leafed goosefoot) weedkilling efficacy grade” value (fig-leafed goosefoot [41]) of the same compound?
A: 4 (weed kill ratio 70% or more, less than 90%)

Q: What about the “F (barnyard grass) weedkilling efficacy grade” value (barnyard grass [42]) of the same compound?
A: 5 (weed kill ratio 90% or more, (practically complete withering))
